Tests used:
[1] = molecular target: T1, Lanosterol 14-alpha demethylase (Candida albicans (strain SC5314 / ATCC MYA-2876) (Yeast), UniProt P10613); assay: Inhibition of CYP51 in Candida albicans SC5314 assessed as lanosterol level at 32 ug/ml by GC-MS analysis (reference value: 1.7 %); parameters: scale not given: the % may be the effect or the level left; details: at 32 µg/mL
Candida albicans [2] = assay: Antifungal activity against Candida albicans CPCC 400616 assessed as inhibition of fungal growth by microdilution method; assay type: functional
HL-60 = assay: Cytotoxicity against human HL-60 cells assessed as inhibition of cell growth by MTT assay; assay type: functional, cell-based
Candida parapsilosis = assay: Antifungal activity against Candida parapsilosis 22019 assessed as inhibition of fungal growth by microdilution method; assay type: functional; details: Lodderomyces parapsilosis
Candida tropicalis = assay: Antifungal activity against Candida tropicalis CGMCC 2.3739 assessed as inhibition of fungal growth by microdilution method; assay type: functional
[3] = molecular target: T1, Lanosterol 14-alpha demethylase; assay: Inhibition of CYP51 in Candida albicans SC5314 assessed as ergosterol level at 64 ug/ml by GC-MS analysis (reference value: 98.3 %); parameters: scale not given: the % may be the effect or the level left; details: at 64 µg/mL
[4] = molecular target: T1, Lanosterol 14-alpha demethylase; assay: Inhibition of CYP51 in Candida albicans SC5314 assessed as lanosterol level at 16 ug/ml by GC-MS analysis (reference value: 1.7 %); parameters: scale not given: the % may be the effect or the level left; details: at 16 µg/mL
[5] = molecular target: T1, Lanosterol 14-alpha demethylase; assay: Inhibition of CYP51 in Candida albicans SC5314 assessed as lanosterol level at 8 ug/ml by GC-MS analysis (reference value: 1.7 %); parameters: scale not given: the % may be the effect or the level left; details: at 8 µg/mL
[6] = molecular target: T1, Lanosterol 14-alpha demethylase; assay: Inhibition of CYP51 in Candida albicans SC5314 assessed as eburicol level at 8 ug/ml by GC-MS analysis (reference value: 0 %); parameters: scale not given: the % may be the effect or the level left; details: at 8 µg/mL
[7] = molecular target: T1, Lanosterol 14-alpha demethylase; assay: Inhibition of CYP51 in Candida albicans SC5314 assessed as obtusifoliol level at 16 ug/ml by GC-MS analysis (reference value: 0 %); parameters: scale not given: the % may be the effect or the level left; details: at 16 µg/mL
PC-3 = assay: Cytotoxicity against human PC-3 cells assessed as inhibition of cell growth by MTT assay; assay type: functional, cell-based
[8] = molecular target: T1, Lanosterol 14-alpha demethylase; assay: Inhibition of CYP51 in Candida albicans SC5314 assessed as obtusifoliol level at 32 ug/ml by GC-MS analysis (reference value: 0 %); parameters: scale not given: the % may be the effect or the level left; details: at 32 µg/mL
Cryptococcus neoformans = assay: Antifungal activity against Cryptococcus neoformans CGMCC 2.3161 assessed as inhibition of fungal growth by microdilution method; assay type: functional
MDA-MB-231 = assay: Cytotoxicity against human MDA-MB-231 cells assessed as inhibition of cell growth by MTT assay; assay type: functional, cell-based
[9] = molecular target: T1, Lanosterol 14-alpha demethylase; assay: Inhibition of CYP51 in Candida albicans SC5314 assessed as ergosterol level at 8 ug/ml by GC-MS analysis (reference value: 98.3 %); parameters: scale not given: the % may be the effect or the level left; details: at 8 µg/mL
Pichia kudriavzevii = assay: Antifungal activity against Candida krusei AS 2.1045 assessed as inhibition of fungal growth by microdilution method; assay type: functional
Candida albicans [10] = assay: Antifungal activity against Candida albicans ATCC SC5314 assessed as inhibition of fungal growth by microdilution method; assay type: functional
[11] = molecular target: T1, Lanosterol 14-alpha demethylase; assay: Inhibition of CYP51 in Candida albicans SC5314 assessed as ergosterol level at 16 ug/ml by GC-MS analysis (reference value: 98.3 %); parameters: scale not given: the % may be the effect or the level left; details: at 16 µg/mL
Aspergillus fumigatus = assay: Antifungal activity against Aspergillus fumigatus CGMCC 3.7795 assessed as inhibition of fungal growth by microdilution method; assay type: functional
[12] = molecular target: T1, Lanosterol 14-alpha demethylase; assay: Inhibition of CYP51 in Candida albicans SC5314 assessed as eburicol level at 16 ug/ml by GC-MS analysis (reference value: 0 %); parameters: scale not given: the % may be the effect or the level left; details: at 16 µg/mL
Nakaseomyces glabratus = assay: Antifungal activity against clinical isolate Candida glabrata assessed as inhibition of fungal growth by microdilution method; assay type: functional
[13] = molecular target: T1, Lanosterol 14-alpha demethylase; assay: Inhibition of CYP51 in Candida albicans SC5314 assessed as eburicol level at 64 ug/ml by GC-MS analysis (reference value: 0 %); parameters: scale not given: the % may be the effect or the level left; details: at 64 µg/mL
[14] = molecular target: T1, Lanosterol 14-alpha demethylase; assay: Inhibition of CYP51 in Candida albicans SC5314 assessed as ergosterol level at 32 ug/ml by GC-MS analysis (reference value: 98.3 %); parameters: scale not given: the % may be the effect or the level left; details: at 32 µg/mL
[15] = molecular target: T1, Lanosterol 14-alpha demethylase; assay: Inhibition of CYP51 in Candida albicans SC5314 assessed as eburicol level at 32 ug/ml by GC-MS analysis (reference value: 0 %); parameters: scale not given: the % may be the effect or the level left; details: at 32 µg/mL
[16] = molecular target: T1, Lanosterol 14-alpha demethylase; assay: Inhibition of CYP51 in Candida albicans SC5314 assessed as lanosterol level at 64 ug/ml by GC-MS analysis (reference value: 1.7 %); parameters: scale not given: the % may be the effect or the level left; details: at 64 µg/mL
[17] = molecular target: T1, Lanosterol 14-alpha demethylase; assay: Inhibition of CYP51 in Candida albicans SC5314 assessed as obtusifoliol level at 8 ug/ml by GC-MS analysis (reference value: 0 %); parameters: scale not given: the % may be the effect or the level left; details: at 8 µg/mL
[18] = molecular target: T1, Lanosterol 14-alpha demethylase; assay: Inhibition of CYP51 in Candida albicans SC5314 assessed as obtusifoliol level at 64 ug/ml by GC-MS analysis (reference value: 0 %); parameters: scale not given: the % may be the effect or the level left; details: at 64 µg/mL

T1 sequence (P10613 whole entry): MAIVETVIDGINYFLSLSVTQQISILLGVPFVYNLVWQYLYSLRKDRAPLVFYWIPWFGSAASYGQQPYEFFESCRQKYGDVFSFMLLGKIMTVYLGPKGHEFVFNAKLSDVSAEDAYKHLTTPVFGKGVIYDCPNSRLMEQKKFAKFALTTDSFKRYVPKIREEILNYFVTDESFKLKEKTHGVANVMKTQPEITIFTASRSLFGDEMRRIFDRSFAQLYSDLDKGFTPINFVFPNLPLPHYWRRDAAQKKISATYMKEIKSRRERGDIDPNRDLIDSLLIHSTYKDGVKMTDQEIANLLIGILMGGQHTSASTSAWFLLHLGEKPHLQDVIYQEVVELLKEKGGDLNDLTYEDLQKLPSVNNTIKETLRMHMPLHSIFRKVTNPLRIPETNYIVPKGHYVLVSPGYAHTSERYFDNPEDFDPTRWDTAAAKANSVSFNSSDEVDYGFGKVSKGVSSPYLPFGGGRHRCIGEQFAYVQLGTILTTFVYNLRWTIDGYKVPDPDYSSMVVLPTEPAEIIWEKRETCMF

Compound: OC(C[Se]Cc1ccccc1Br)(Cn1cncn1)c1ccc(F)cc1F (configuration not stated)
- Activity [1]: 21.1%
- MIC (Candida albicans [2]): 0.25 µg/mL
- IC50 (HL-60): 18.4 µM
- MIC (Candida parapsilosis): 0.125 µg/mL
- MIC (Candida tropicalis): 0.25 µg/mL
- Activity [3]: 0.18%
- Activity [4]: 20.3%
- Activity [5]: 19.2%
- Activity [6]: 66.2%
- Activity [7]: 11.3%
- IC50 (PC-3): 15.6 µM
- Activity [8]: 9.28%
- MIC (Cryptococcus neoformans): 1 µg/mL
- IC50 (MDA-MB-231): 17.9 µM
- Activity [9]: 3.5%
- MIC (Pichia kudriavzevii): 0.25 µg/mL
- MIC (Candida albicans [10]): 0.01 µg/mL
- Activity [11]: 2.1%
- MIC (Aspergillus fumigatus): 2 µg/mL
- Activity [12]: 66.7%
- MIC (Nakaseomyces glabratus): 4 µg/mL
- Activity [13]: 69.3%
- Activity [14]: 0.48%
- Activity [15]: 69.2%
- Activity [16]: 19.6%
- Activity [17]: 11.1%
- Activity [18]: 11.9%
